Test results as given in PubChem BioAssay (NCI).
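Where inhibition never reached the appropriate level, the endpoint shown equals the highest concentration tested. Otherwise, values were interpolated linearly from a five-concentration, 48-hour dose response in 96-well plates. GI50 marks 50% less growth. TGI is the concentration that stops growth completely.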

Legend:
Assay in all cases: growth of human tumour cells (NCI), 48 h
SN12C renal = test system: SN12C renal
SNB-75 CNS = test system: SNB-75 CNS
IGROV1 ovarian = test system: IGROV1 ovarian
OVCAR-8 ovarian = test system: OVCAR-8 ovarian
A549 NSCLC = test system: A549 NSCLC
HOP-92 NSCLC = test system: HOP-92 NSCLC
SK-MEL-2 melanoma = test system: SK-MEL-2 melanoma
SW-620 colon = test system: SW-620 colon
DU-145 prostate = test system: DU-145 prostate
SK-OV-3 ovarian = test system: SK-OV-3 ovarian

Row | SMILES | TGI (SN12C renal) [µM] | TGI (SNB-75 CNS) [µM] | TGI (IGROV1 ovarian) [µM] | TGI (OVCAR-8 ovarian) [µM] | TGI (A549 NSCLC) [µM] | TGI (HOP-92 NSCLC) [µM] | TGI (SK-MEL-2 melanoma) [µM] | TGI (SW-620 colon) [µM] | TGI (DU-145 prostate) [µM] | TGI (SK-OV-3 ovarian) [µM] | GI50 (SN12C renal) [µM] | GI50 (SNB-75 CNS) [µM] | GI50 (IGROV1 ovarian) [µM] | GI50 (OVCAR-8 ovarian) [µM] | GI50 (A549 NSCLC) [µM] | GI50 (HOP-92 NSCLC) [µM] | GI50 (SK-MEL-2 melanoma) [µM] | GI50 (SW-620 colon) [µM] | GI50 (DU-145 prostate) [µM] | GI50 (SK-OV-3 ovarian) [µM]
1 | CC(=O)Nc1ccc(C(=O)N[C@@H]2C(=O)N3[C@@H]2SC(C)(C)[C@@H]3C(=O)O)cn1 | > 100 | > 100 | > 100 | > 100 | > 100 | > 100 | > 100 | > 100 | > 100 | > 100 | – | – | – | – | – | – | – | – | – | –
2 | NC(=O)NC(=O)CI | 19.2 | 29.4 | 11.5 | 11.9 | 37.4 | 3.89 | 18.7 | 3.57 | 32.3 | > 56.2 | 6.63 | 15.2 | 3.67 | 3.23 | 18.8 | 1.65 | 5.78 | 1.68 | 17.7 | 27.4
3 | Cc1ccc(/C=C2\CCOC2=O)cc1 | > 100 | > 100 | > 100 | > 100 | > 100 | > 100 | > 100 | > 100 | > 100 | > 100 | > 100 | > 100 | 82.5 | > 100 | > 100 | > 100 | > 100 | > 100 | > 100 | > 100
4 | O=Cc1ccc(C(F)(F)F)cc1.[C-]#[O+].[C-]#[O+].[C-]#[O+].[Cr] | 82.1 | 49.5 | > 100 | > 100 | > 100 | > 100 | > 100 | > 100 | 94.9 | > 100 | 22.6 | 15.6 | 18.7 | 25.3 | 23 | 24.8 | 23.7 | 30.9 | 20.9 | 31.3
5 | Cc1c2c(nn1-c1ccc(S/N=C3\SCC(=O)CN3c3ccccc3)cc1)-c1ccccc1CC2 | > 50 | > 50 | 21.4 | > 50 | > 50 | > 50 | 47 | > 50 | > 50 | > 50 | 17.8 | > 50 | 8.31 | > 50 | > 50 | > 50 | 18.2 | 19.1 | 43.9 | 43.3
6 | O=Nc1c(-c2cccc([N+](=O)[O-])c2)nc2ncccn12 | 42.3 | 23.8 | 23.4 | 43.8 | 56.9 | 21.6 | 38.1 | 6.03 | 16.8 | 59.6 | 16.4 | 10.9 | 10.3 | 8.9 | 21.8 | 3.19 | 14.7 | 2.08 | 4.24 | 22.8
7 | O=c1c2ccccc2nc(-c2ccc(Cl)cc2)n1O | > 100 | > 100 | 9.61 | 48.4 | > 100 | 88.8 | – | > 100 | > 100 | > 100 | – | – | – | – | – | – | – | – | – | –
8 | O=C1NC(=NCCc2ccccc2Cl)S/C1=C\c1ccc2ncccc2c1 | > 25 | > 14.9 | > 25 | > 25 | > 25 | 22.2 | 14 | > 25 | > 25 | > 20.4 | 7.72 | 1.7 | 5.75 | 8.16 | 5.16 | 4 | 5.86 | 1.09 | 6.9 | 5.94
9 | NCCOc1ccccn1 | > 100 | > 100 | > 100 | > 100 | > 100 | > 100 | > 100 | > 100 | > 100 | > 100 | – | – | – | – | – | – | – | – | – | –
10 | O=C(NC(=S)NS(=O)(=O)c1ccc(N2N=C3c4ccccc4CC3C2c2cccs2)cc1)c1ccccc1 (centres undefined) | 96.9 | > 100 | > 100 | > 100 | > 100 | > 100 | > 100 | > 100 | > 100 | > 100 | 26 | > 100 | 3.14 | 20.3 | 20.3 | 53.1 | 44 | 34.8 | 28.3 | 90.8
11 | COc1ccc2c(CNCCCCO)cc3cc4c(cc3c2c1)OCO4 | 7.72 | 6.67 | 4.75 | 6.68 | 6.07 | 4.4 | 3.93 | 2.35 | 7.09 | 23.8 | 1.92 | 2.02 | 0.407 | 0.341 | 0.552 | 0.598 | 1.63 | 0.228 | 1.33 | 4.2
12 | Cn1c(=O)c(Cc2ccc(F)cc2F)cc2cnc(NC3CCOCC3)nc21 | > 25 | > 25 | > 25 | > 25 | > 25 | > 25 | > 25 | > 25 | > 25 | > 25 | > 19.8 | > 17.5 | > 25 | > 25 | > 25 | 2.13 | > 25 | > 25 | > 25 | > 25
13 | Cn1c2ccccc2c2c3c(c4c5ccccc5n(CCCCCC#N)c4c21)C(=O)N(O)C3=O | 20.9 | 6.2 | 4.61 | 10.8 | 50.4 | 6.99 | 3.84 | > 100 | > 100 | 7.45 | 0.453 | 0.43 | 1.59 | 0.759 | 1.68 | 1.77 | 1.54 | 0.732 | 0.381 | 0.596
14 | Cc1cc(S(N)(=O)=O)c(S/C(=N\NS(=O)(=O)c2ccc(Cl)cc2)c2ccc(Cl)cc2)cc1Cl | > 100 | – | > 100 | > 100 | > 100 | > 100 | > 100 | > 100 | > 100 | > 100 | > 100 | – | > 100 | > 100 | 49.1 | > 100 | > 100 | > 100 | > 100 | > 100
15 | CSC(=S)N/N=C(\C)c1ccccn1 | 37.5 | 32.3 | 17.4 | 13.5 | 18 | 26.1 | 3.75 | 17.3 | 12.2 | 15.2 | 0.454 | 1.47 | 0.171 | 0.203 | 0.311 | 1.39 | 0.329 | 0.169 | 0.465 | 0.589
16 | Cc1nc2cc(O)c(O)cc2cc1Oc1ccc(NC(=O)Nc2ccc(Cl)c(Cl)c2)cc1 | 30.3 | 28.9 | > 32.5 | > 32.5 | 26.2 | 16.7 | 21.1 | > 32.5 | 25.2 | > 32.5 | 8.97 | 7.73 | 12.3 | 5.77 | 8.99 | 2.85 | 8.83 | 4.8 | 7.26 | 11.7
17 | COC(=O)c1oc2c(C(=O)/C=C/c3ccc(OC)cc3)c(OCCCN3CCCCC3)ccc2c1C | 4.86 | 6.37 | 4.43 | 4.23 | 5.28 | 2.59 | 7.65 | 3.03 | 2.57 | 4.35 | 1.75 | 1.89 | 0.782 | 1.67 | 2.04 | 0.808 | 1.87 | 1.38 | 1.18 | 1.25
18 | COc1ccc(Cc2ccccc2C(=O)O)c2ccccc12 | > 100 | > 100 | 65.1 | > 100 | > 100 | 61.9 | 54.5 | > 100 | > 100 | > 100 | – | – | – | – | – | – | – | – | – | –
19 | Fc1ccc(Nc2nc(Nc3ccc(-c4nc5ccccc5[nH]4)cc3)nc(N3CCCC3)n2)cc1 | 5.24 | 3.89 | – | 5.81 | 9.1 | 5.38 | 28 | 3.7 | 15.3 | 31.6 | 2.25 | 1.7 | – | 2.36 | 3.07 | 1.76 | 13 | 1.87 | 4.21 | 15.9
20 | O=C(/C=N/O)c1c(-c2ccccc2)[nH]c(-c2ccccc2)c1-c1ccccc1 | 35.2 | 55.7 | 28.4 | – | 45.2 | 67.1 | 24 | 48.7 | 12.3 | 35.1 | – | – | – | – | – | – | – | – | – | –
21 | CC1=C(C)C(=O)C(C(C)C2=C(C)C(=O)C(C)=C(C)C2=O)=C(C)C1=O | > 100 | – | > 100 | > 100 | > 100 | 39.7 | > 100 | 29.8 | > 100 | > 100 | 56 | – | 48.9 | 33.3 | 51 | 13.8 | 33.8 | 15.7 | 35.5 | > 100
22 | CCN1C(=O)N(c2c(F)c(OC)cc(OC)c2F)Cc2cnc3[nH]c(CN4CCOCC4)cc3c21 | 28.2 | 26.5 | > 100 | > 100 | > 100 | > 100 | 41.8 | > 100 | > 100 | – | 2.78 | 1.13 | 1.44 | 3.98 | 2.83 | 2.06 | 1.08 | 3.51 | 1.99 | –
23 | COc1ccc(/C=C(/C(=O)N2CCNCC2)c2cc(OC)c(OC)c(OC)c2)cc1O | > 100 | – | > 100 | > 100 | > 100 | > 100 | > 100 | > 100 | > 100 | > 100 | 7.86 | – | 6.73 | 5.64 | 6.63 | 23.5 | 3.51 | 3.69 | 4.1 | 4.18
24 | COc1cc2c(/C=C3\C(=O)Nc4ccc(Br)cc43)c(Cl)n(C)c2cc1C | 11.4 | > 25.7 | – | 20.3 | 14.5 | 17.9 | 5.7 | 15.4 | 4.36 | 18.6 | 3.05 | 1.82 | – | 5.12 | 2.56 | 2.37 | 1.74 | 3.09 | 2.04 | 3.87
25 | CO/N=C1/c2cc(OC)ccc2-c2c(NOC)nc3ccccc3c21 | > 100 | 40.2 | 44.2 | 37 | 37.3 | 46.2 | 88.5 | > 100 | > 100 | – | 29.5 | 14.6 | 18 | 10.3 | 16 | 16 | 24.7 | 60.1 | 29.2 | –
26 | CCOC(=O)C(=Cc1ccccc1Br)C(=O)OCC | 15.6 | 75.5 | 4.62 | 5.6 | > 100 | 7.57 | 5.31 | – | 2.68 | – | – | – | – | – | – | – | – | – | – | –
27 | Oc1ccc2ccccc2c1/C=N\Nc1ccccn1 | > 100 | 10.3 | 2.05 | > 60.4 | – | > 100 | > 49 | > 100 | – | > 55 | 1.7 | 1.03 | 0.273 | 0.365 | – | 0.403 | – | 0.588 | 0.482 | 0.64
28 | O=C1c2cc3c(cc2-c2c1c1ccc([N+](=O)[O-])cc1c(=O)n2CCCCl)OCO3 | 0.503 | > 100 | – | > 100 | > 100 | > 100 | > 100 | > 100 | > 100 | > 100 | 0.0862 | 3.35 | – | > 100 | 0.523 | – | > 100 | 0.263 | 0.122 | –
